# In patent publication US5081241A, “Spiro-pyridazines and analogs thereof useful as aldose reductase inhibitors” (American Home Products Corporation, priority 1990, dated 1992):
# Columns and labels:
# aldose reductase = biological target: T1, aldose reductase (Bos taurus, UniProt P16116); experiment: in vitro aldose reductase inhibition (modified Hayman and Kinoshita procedure; enzyme from bovine lens); format: biochemical; details: 10^-5
# T1 construct: preparation of the enzyme from bovine lens; from tissue; host or cells: bovine lens
# Experimental: (§1) (c) The polyol determination was performed by a modification of the procedure of M. Kraml and L. Cosyns, Clin. Biochem., 2, 373 (1969). Only two minor reagent changes were made: (a) the rinsing mixture was an aqueous 5% (w/v) trichloroacetic acid solution and (b) the stock solution was prepared by dissolving 25 mg of dulcitol in 100 mL of an aqueous trichloroacetic acid solution. [N.B.: For each experiment the average value found in the tissue from rats fed the glucose diet was subtracted from the individual values found in the corresponding tissue in galactose-fed rats to obtain the amount of polyol accumulated.] The aldose reductase inhibiting effects of the compounds of formula (I) were also tested by employing an in vitro testing procedure similar to that described by S. Hayman and J. H. Kinoshita, J. Biol. Chem., 240, 877 (1965). In the present case the procedure of Hayman and Kinoshita was modified in that the final chromatography step was omitted in the preparation of the enzyme from bovine lens.
# [1] = tested on: accumulation of dulcitol in the lenses, sciatic nerves and diaphragm of rats fed galactose; experiment: in vivo lowering of galactitol (dulcitol) accumulation in galactosemic rats; set-up: species or system male Sprague-Dawley rats
# Excerpt: The aldose reductase inhibiting property of the compounds of this invention and the utilization of the compounds in preventing, diminishing and alleviating diabetic complications are demonstrable in experiments using galactosemic rats, see Dvornik et al., Science, 182, 1146 (1973). Such experiments are exemplified hereinbelow after the listing of the following general comments pertaining to these experiments:
# (a) Four or more groups of six male rats, 50-70 g, Sprague-Dawley strain, were used. The first group, the control group, was fed a mixture of laboratory chow (rodent Laboratory Chow, Purina) and glucose at 20% (w/w %) concentration. An untreated galactosemic group was fed a similar diet in which galactose was substituted for glucose. The third group was fed a diet prepared by mixing a given amount of the test compound with the galactose containing diet. The concentration of galactose in the diet of the treated groups was the same as that for the untreated galactosemic group.
# (b) After four days, the animals were killed by euthanization. Both the lens and sciatic nerve were removed, weighed and stored frozen for polyol determination.
# as §1
# The figures under L, N, and D represent the percentage decrease of dulcitol accumulation in the tissues of the lens, sciatic nerve, and diaphragm, respectively, for treated rats as compared to untreated rats.
# [2] = feed or water, 55 mg/kg/day, 96 h
% Inhibition In Vitro (aldose reductase) [%],Compound,"% Lowering Galacititol Accumulation In Vivo % (D) ([1]; diaphragm, dose 47 mg/kg/day in diet, 4 days, vs untreated galactosemic rats) [%]","% Lowering Galacititol Accumulation In Vivo % (L) ([1]; lens, dose 47 mg/kg/day in diet, 4 days, vs untreated galactosemic rats) [%]","% Lowering Galacititol Accumulation In Vivo % (D) ([1]; diaphragm, dose 25 mg/kg/day in diet, 4 days, vs untreated galactosemic rats) [%]","% Lowering Galacititol Accumulation In Vivo % (D) [1, 2] [%]"
5,"CN1C(=O)CC2(C(=O)N(Cc3ccc(Br)cc3F)C(=O)c3ccc(F)cc32)C(=O)N1C (centres unmarked) [R^1 = F, R^5 = CH3, 2-[(4-bromo-2-fluorophenyl)methyl]-6-fluoro-1',2'-dimethylspiro[isoquinoline-4(1H),4'(1'H)-pyridazine]-1,3,3',6'(2H,2'H,5'H)-tetrone]",59,18,,
6,"CN1C(=O)CC2(C(=O)N(Cc3ccc(Br)cc3F)C(=O)c3ccccc32)C(=O)N1C (centres unmarked) [R^1 = H, R^5 = CH3, 2-[(4-bromo-2-fluorophenyl)methyl]-1',2'-dimethylspiro[isoquinoline-4(1H),4'(1'H)-pyridazine]-1,3,3',6'(2H,2'H,5'H)-tetrone]",,,48,82
21,"CN1NC(=O)C2(CC1=O)C(=O)N(Cc1ccc(Br)cc1F)C(=O)c1ccccc12 (centres unmarked) [R^1 = H, R^5 = H, 2-[(4-bromo-2-fluorophenyl)methyl]-1'-methylspiro[isoquinoline-4(1H),4'(1'H)-pyridazine]-1,3,3',6'(2H,2'H,5'H)-tetrone]",,,,21
